According to US10221139B2, “Inhibitors of histone demethylases” (Gilead Sciences, Inc., priority 2012, dated 2019):

Key:
Type in all cases: biochemical
GASC1 (KDM4C, JMJD2C) = molecular target: T1, GASC1 (KDM4C, JMJD2C) (Homo sapiens, UniProt Q9H3R0); experiment: Histone lysine demethylase AlphaLISA assay, GASC1; details: substrate BK9M3
T1 construct: 1-349; host or cells: E. coli
T1 sequence (Q9H3R0 1-349): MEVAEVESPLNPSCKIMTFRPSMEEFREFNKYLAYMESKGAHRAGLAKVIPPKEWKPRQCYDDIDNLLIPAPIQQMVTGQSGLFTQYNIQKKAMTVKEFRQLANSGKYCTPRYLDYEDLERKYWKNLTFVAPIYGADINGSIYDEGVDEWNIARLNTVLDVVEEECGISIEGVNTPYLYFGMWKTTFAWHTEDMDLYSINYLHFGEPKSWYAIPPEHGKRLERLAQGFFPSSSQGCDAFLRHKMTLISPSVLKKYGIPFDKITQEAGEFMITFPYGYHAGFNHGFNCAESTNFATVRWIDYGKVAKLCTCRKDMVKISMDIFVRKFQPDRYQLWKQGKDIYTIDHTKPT
Protocol: (§1) Example 2: Histone Lysine Demethylase AlphaLISA Assays for IC50 Value Determination
(§2) Assays are performed analogously to the protocol described by Perkin Elmer (Roy et al. Perkin Elmer Technical Note: AlphaLISA #12, April 2011).
(§3) Enzymes are dissolved in enzyme buffer and incubated for 10 min before 5 μL is added to 5 μL 3% DMSO solutions of compounds in enzyme buffer. Incubated for another 10 minutes, before 5 μL substrate solution is added and the reaction mixture is incubated at room temperature for the given period. 10 μL acceptor beads, suspended at given dilutions in Epigenetic Buffer (Perkin Elmer AL008) from stock, are added and the suspension is incubated 60 minutes in the dark at room temperature, before 10 μL suspension (at the given dilutions in Epigenetic Buffer) of streptavidin donor beads (Perkin Elmer 6760002) in Epigenetic Buffer is added. After incubation at room temperature in the dark the plates are read. Reaction conditions are seen in Table 2b.

UTX (KDM6A) = molecular target: T2, UTX (KDM6A) (Homo sapiens, UniProt O15550); experiment: Histone lysine demethylase AlphaLISA assay, UTX; details: substrate BK27M3
T2 construct: 919-1401; host or cells: E. coli
T2 sequence (O15550 919-1401): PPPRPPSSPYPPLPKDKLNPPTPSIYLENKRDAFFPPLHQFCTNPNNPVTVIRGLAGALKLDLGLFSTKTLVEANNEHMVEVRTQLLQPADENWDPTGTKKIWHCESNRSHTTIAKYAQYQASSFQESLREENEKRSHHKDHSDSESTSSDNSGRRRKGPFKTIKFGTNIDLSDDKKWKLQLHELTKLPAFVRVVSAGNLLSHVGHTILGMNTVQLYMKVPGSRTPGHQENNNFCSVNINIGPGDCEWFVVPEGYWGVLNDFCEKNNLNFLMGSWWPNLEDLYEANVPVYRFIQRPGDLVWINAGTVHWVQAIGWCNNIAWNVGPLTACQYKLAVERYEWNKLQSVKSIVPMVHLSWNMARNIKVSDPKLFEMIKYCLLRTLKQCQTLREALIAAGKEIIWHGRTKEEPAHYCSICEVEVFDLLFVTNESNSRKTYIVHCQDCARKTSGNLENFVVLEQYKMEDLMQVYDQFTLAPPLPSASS
Protocol: as §1, §2, §3

PLU1 (KDM5B) = molecular target: T3, PLU1 (KDM5B) (Homo sapiens, UniProt Q9UGL1); experiment: Histone lysine demethylase AlphaLISA assay, PLU1; details: substrate H3K4M3B
T3 construct: 1-809; host or cells: E. coli
T3 sequence (Q9UGL1 1-809): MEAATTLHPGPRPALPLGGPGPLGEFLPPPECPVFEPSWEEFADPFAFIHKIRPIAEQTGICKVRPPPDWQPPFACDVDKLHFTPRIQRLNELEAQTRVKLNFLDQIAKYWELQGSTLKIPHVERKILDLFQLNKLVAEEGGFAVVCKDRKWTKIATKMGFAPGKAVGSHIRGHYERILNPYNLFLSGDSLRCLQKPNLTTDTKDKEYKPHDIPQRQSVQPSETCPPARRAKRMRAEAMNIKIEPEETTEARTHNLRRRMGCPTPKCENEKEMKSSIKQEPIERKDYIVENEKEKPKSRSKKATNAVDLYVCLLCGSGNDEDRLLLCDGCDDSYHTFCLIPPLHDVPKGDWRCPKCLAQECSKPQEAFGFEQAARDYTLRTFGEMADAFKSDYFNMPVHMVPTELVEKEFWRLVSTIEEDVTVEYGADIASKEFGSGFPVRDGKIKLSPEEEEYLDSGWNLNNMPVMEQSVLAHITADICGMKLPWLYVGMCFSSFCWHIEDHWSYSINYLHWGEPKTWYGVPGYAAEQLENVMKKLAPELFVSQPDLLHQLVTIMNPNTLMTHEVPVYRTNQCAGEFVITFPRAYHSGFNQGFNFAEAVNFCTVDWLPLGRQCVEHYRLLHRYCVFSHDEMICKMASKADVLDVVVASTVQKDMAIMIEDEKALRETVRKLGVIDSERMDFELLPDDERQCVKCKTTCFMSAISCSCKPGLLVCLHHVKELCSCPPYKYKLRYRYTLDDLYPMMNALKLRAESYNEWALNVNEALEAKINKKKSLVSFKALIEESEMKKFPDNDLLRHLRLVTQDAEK
Protocol: as §1, §2, §3

| Compound | IC50 (GASC1 (KDM4C, JMJD2C)) | IC50 (UTX (KDM6A)) | IC50 (PLU1 (KDM5B)) |
| --- | --- | --- | --- |
| 2-[({2-[(2S)-1-benzylpyrrolidin-2-yl]ethyl}amino)methyl]pyridine-4-carboxylic acid [#45] | < 100 nM | ≥ 1000 nM | < 100 nM |
| 4-methoxyphenyl 2-({[4-(diethylamino)butyl]amino}methyl)pyridine-4-carboxylate [#51] | 100 to 1000 nM | ≥ 1000 nM | < 100 nM |
| O=C(O)c1ccnc(CNCC2CC2)c1 [#4, 2-{[(cyclopropylmethyl)amino]methyl}pyridine-4-carboxylic acid] | 100 to 1000 nM | ≥ 1000 nM | < 100 nM |
| CN(C)CCN(C)Cc1cc(C(=O)O)ccn1 [#6, 2-({[2-(dimethylamino)ethyl](methyl)amino}methyl)pyridine-4-carboxylic acid] | – | ≥ 1000 nM | 100 to 1000 nM |
| C#CCN(C)Cc1cc(C(=O)O)ccn1 [#7, 2-{[methyl(prop-2-yn-1-yl)amino]methyl}pyridine-4-carboxylic acid] | 100 to 1000 nM | ≥ 1000 nM | 100 to 1000 nM |
| O=C(O)c1ccnc(CNCCF)c1 [#8, 2-{[(2-fluoroethyl)amino]methyl}pyridine-4-carboxylic acid] | 100 to 1000 nM | ≥ 1000 nM | 100 to 1000 nM |
| O=C(O)c1ccnc(CNCc2ccc(-c3ccccc3)o2)c1 [#10, 2-({[(5-phenylfuran-2-yl)methyl]amino}methyl)pyridine-4-carboxylic acid] | ≥ 1000 nM | ≥ 1000 nM | 100 to 1000 nM |
| CC(C)(C)OC(=O)N1CC[C@@H](NCc2cc(C(=O)O)ccn2)C1 [#19, 2-({[(3R)-1-[(tert-butoxy)carbonyl]pyrrolidin-3-yl]amino}methyl)pyridine-4-carboxylic acid] | ≥ 1000 nM | ≥ 1000 nM | ≥ 1000 nM |
| COC(=O)c1ccnc(CNCCCN2CCCC2)c1 [#47, methyl 2-({[3-(pyrrolidin-1-yl)propyl]amino}methyl)pyridine-4-carboxylate] | ≥ 1000 nM | – | 100 to 1000 nM |
| CCN(CCN(C)C)C(=O)CNCc1cc(C(=O)OC(C)CCNC(=O)C(F)(F)F)ccn1 (stereo not drawn) [#63, 4-(trifluoroacetamido)butan-2-yl 2-{[({[2-(dimethylamino)ethyl](ethyl)carbamoyl}methyl)amino]methyl}pyridine-4-carboxylate] | 100 to 1000 nM | – | 100 to 1000 nM |
| CCN(CCN(C)C)C(=O)CNCc1cc(C(=O)OC(CNC(=O)C(F)(F)F)CC(=O)OC(C)C)ccn1 (stereo not drawn) [#73, propan-2-yl 3-(2-{[({[2-(dimethylamino)ethyl](ethyl)carbamoyl}methyl)amino]methyl}pyridine-4-carbonyloxy)-4-(trifluoroacetamido)butanoate] | 100 to 1000 nM | – | 100 to 1000 nM |
| CCN(CCN(C)C)C(=O)CNCc1cc(C(=O)OC(CCNC(=O)C(F)(F)F)CC(=O)OC(C)C)ccn1 (stereo not drawn) [#74, propan-2-yl 3-(2-{[({[2-(dimethylamino)ethyl](ethyl)carbamoyl}methyl)amino]methyl}pyridine-4-carbonyloxy)-5-(trifluoroacetamido)pentanoate] | 100 to 1000 nM | – | < 100 nM |
| CCN(CCN(C)C)C(=O)CNCc1cc(C(=O)Nc2ccncc2)ccn1 [#75, 2-{[({[2-(dimethylamino)ethyl](ethyl)carbamoyl}methyl)amino]methyl}-N-(pyridin-4-yl)pyridine-4-carboxamide] | 100 to 1000 nM | – | < 100 nM |
| O=C(O)c1ccnc(CN2CCCCC2)c1 [#78, 2-(piperidin-1-ylmethyl)pyridine-4-carboxylic acid] | ≥ 1000 nM | – | ≥ 1000 nM |
| CCN(CCN(C)C)C(=O)CNCc1cc(C(=O)Oc2c(OC(C)C)cccc2OC(C)C)ccn1 [#85, 2,6-bis(propan-2-yloxy)phenyl 2-{[({[2-(dimethylamino)ethyl](ethyl)carbamoyl}methyl)amino]methyl}pyridine-4-carboxylate] | 100 to 1000 nM | – | 100 to 1000 nM |
| CC(C)C[C@@H](C(=O)N1CCCCC1)N(C)Cc1cc(C(=O)O)ccn1 [#93, 2-({methyl[(2S)-4-methyl-1-oxo-1-(piperidin-1-yl)pentan-2-yl]amino}methyl)pyridine-4-carboxylic acid] | ≥ 1000 nM | – | ≥ 1000 nM |

The remaining lines, values ahead:

| IC50 (GASC1 (KDM4C, JMJD2C)) | IC50 (UTX (KDM6A)) | IC50 (PLU1 (KDM5B)) | Compound |
| --- | --- | --- | --- |
| 100 to 1000 nM | ≥ 1000 nM | < 100 nM | O=C(O)c1ccnc(CNC[C@@H](O)CO)c1 [#3, 2-({[(2R)-2,3-dihydroxypropyl]amino}methyl)pyridine-4-carboxylic acid] |
| < 100 nM | ≥ 1000 nM | – | O=C(O)c1ccnc(CNCc2ccco2)c1 [#9, 2-{[(furan-2-ylmethyl)amino]methyl}pyridine-4-carboxylic acid] |
| < 100 nM | ≥ 1000 nM | < 100 nM | CSCCNCc1cc(C(=O)O)ccn1 [#12, 2-({[2-(methylsulfanyl)ethyl]amino}methyl)pyridine-4-carboxylic acid] |
| < 100 nM | ≥ 1000 nM | < 100 nM | COCCN1CCN(C(=O)CNCc2cc(C(=O)O)ccn2)CC1 [#16, 2-[({2-[4-(2-methoxyethyl)piperazin-1-yl]-2-oxoethyl}amino)methyl]pyridine-4-carboxylic acid] |
| < 100 nM | ≥ 1000 nM | < 100 nM | C=CCN(CC=C)C(=O)CNCc1cc(C(=O)O)ccn1 [#17, 2-[({[bis(prop-2-en-1-yl)carbamoyl]methyl}amino)methyl]pyridine-4-carboxylic acid] |
| < 100 nM | ≥ 1000 nM | < 100 nM | O=C(O)c1ccnc(CNCC(=O)N2CCC[C@@H]2CN2CCCC2)c1 [#18, 2-[({2-oxo-2-[(2R)-2-(pyrrolidin-1-ylmethyl)pyrrolidin-1-yl]ethyl}amino)methyl]pyridine-4-carboxylic acid] |
| < 100 nM | ≥ 1000 nM | < 100 nM | O=C(O)c1ccnc(CNCCCNCCCN2CCCC2)c1 [#21, 2-{[(3-{[3-(pyrrolidin-1-yl)propyl]amino}propyl)amino]methyl}pyridine-4-carboxylic acid] |
| < 100 nM | – | < 100 nM | CCN(CCN(C)C)C(=O)CNCc1cc(C(=O)Oc2ccc(C(C)(C)C)cc2)ccn1 [#61, 4-tert-butylphenyl 2-{[({[2-(dimethylamino)ethyl](ethyl)carbamoyl}methyl)amino]methyl}pyridine-4-carboxylate] |
| < 100 nM | – | < 100 nM | CCN(CCN(C)C)C(=O)CNCc1cc(C(=O)OC(C)CC(C)=O)ccn1 (stereo not drawn) [#62, 4-oxopentan-2-yl 2-{[({[2-(dimethylamino)ethyl](ethyl)carbamoyl}methyl)amino]methyl}pyridine-4-carboxylate] |
| < 100 nM | – | < 100 nM | CCN(CCN(C)C)C(=O)CNCc1cc(C(=O)Nc2nnc(C)o2)ccn1 [#76, 2-{[({[2-(dimethylamino)ethyl](ethyl)carbamoyl}methyl)amino]methyl}-N-(5-methyl-1,3,4-oxadiazol-2-yl)pyridine-4-carboxamide] |
| < 100 nM | – | < 100 nM | CCN(CCN(C)C)C(=O)CNCc1cc(C(=O)Nc2ccnn2C)ccn1 [#77, 2-{[({[2-(dimethylamino)ethyl](ethyl)carbamoyl}methyl)amino]methyl}-N-(1-methyl-1H-pyrazol-5-yl)pyridine-4-carboxamide] |
| < 100 nM | – | < 100 nM | CCN(CCN(C)C)C(=O)CNCc1cc(C(=O)Nc2ncco2)ccn1 [#84, 2-{[({[2-(dimethylamino)ethyl](ethyl)carbamoyl}methyl)amino]methyl}-N-(1,3-oxazol-2-yl)pyridine-4-carboxamide] |
